# Key:
# Format in all cases: in vivo
# Sphenoclea zeylanica [1] = test: Herbicidal efficacy with Bensulfuron methyl and 2,4-D in Thailand (Table 20); details: 20 GAI/HA; 14 days after treatment
# Excerpt: (§1) Methyl 2-[[[[(4-methoxy-6-methyl-1,3,5-triazin-2-yl)amino]carbonyl]amino]sulfonyl]benzoate (Compound 1) and mixtures thereof with other compounds were applied as a spray (using a hand sprayer) to rice (either transplanted or direct seeded) in several rice growing areas in Southeast Asia and in the U.S. Tables 1-28 contain the results of these tests and clearly exemplify the utility of this invention. The details of each application are included in the appropriate table. [drawing 2]
# Cuperus iria = test: as above; details: 14 days after treatment
# Excerpt: as §1
# Ludwigia linifolia = test: as above; details: 14 days after treatment
# Excerpt: as §1
# rice [2] = test: as above; details: 14 days after treatment
# Excerpt: as §1
# Sphenoclea zeylanica [3] = test: Field test with Bensulfuron methyl in direct seeded rice (Table 10); details: 10 = complete control
# Excerpt: as §1
# Cyperus iria [4] = test: as above; details: 10 = complete control
# Excerpt: as §1
# Marsilea crenata = test: as above; details: 10 = complete control
# Excerpt: as §1
# WEED = test: Effects in combination with Bensulfuron Methyl and Thiobencarb or Pretilachlor on weed control (Table 25); details: rate 25 g ai/ha, scale 0 to 10, treated at 2.0 leaf stage, evaluated four weeks later
# Excerpt: as §1
# Cyperus difformis [5] = test: Herbicidal efficacy with Bensulfuron methyl and 2,4-D in Thailand (Table 18); details: 13 days after treatment
# Excerpt: as §1
# Sphenoclea zeylanica [6] = test: as above; details: 13 days after treatment
# Excerpt: as §1
# rice [7] = test: as above; details: 13 days after treatment
# Excerpt: as §1
# FIMBRISTYLIS MILIACEA = test: Field test applied at 18 DAS in direct seeded rice (Table 12); details: scale 0-10
# Excerpt: as §1
# Sphenoclea zeylanica [8] = test: as above; details: scale 0-10
# Excerpt: as §1
# Cyperus iria [9] = test: as above; details: scale 0-10
# Excerpt: as §1
# Jussiaea linifolia = test: as above; details: scale 0-10
# Excerpt: as §1
# direct seeded rice = test: Field test with Bensulfuron methyl in direct seeded rice, yield (Table 10)
# Excerpt: as §1
# rice [10] = test: Effects in combination with Bensulfuron Methyl and Thiobencarb or Pretilachlor on rice growth (Table 23); details: rate 25 g ai/ha; var. Koshihikari, applied 7 days after transplanting, rated 21 days after application
# Excerpt: as §1
# Cyperus difformis [11] = test: Field test applied at 7 DAS in direct seeded rice (Table 11); details: scale 0-10
# Excerpt: as §1
# Sphenoclea zeylanica [12] = test: as above; details: scale 0-10
# Excerpt: as §1
compound,measurement,setting,value
"COC(=O)c1ccccc1CS(=O)(=O)NC(=O)Nc1nc(OC)cc(OC)n1 [Bensulfuron methyl, methyl 2-[[[[[(4,6-dimethoxy-2-pyrimidinyl)amino]carbonyl]amino]sulfonyl]methyl]benzoate]",% CONTROL OR INJURY SZ,Sphenoclea zeylanica [1],53%
same,% CONTROL OR INJURY CI,Cuperus iria; 10 GAI/HA,77%
same,% CONTROL OR INJURY CI,Cuperus iria; 15 GAI/HA,90%
same,% CONTROL OR INJURY CI,Cuperus iria; 20 GAI/HA,95%
same,% CONTROL OR INJURY LL,Ludwigia linifolia; 10 GAI/HA,80%
same,% CONTROL OR INJURY LL,Ludwigia linifolia; 15 GAI/HA,80%
same,% CONTROL OR INJURY LL,Ludwigia linifolia; 20 GAI/HA,87%
same,% CONTROL OR INJURY RICE,rice [2]; 10 GAI/HA,0%
same,% CONTROL OR INJURY RICE,rice [2]; 15 GAI/HA,0%
same,% CONTROL OR INJURY RICE,rice [2]; 20 GAI/HA,0%
same,WEEDS CONTROL at 4 WAA SZ,Sphenoclea zeylanica [3]; 10 GAI/HA,0
same,WEEDS CONTROL at 4 WAA SZ,Sphenoclea zeylanica [3]; 20 GAI/HA,6
same,WEEDS CONTROL at 4 WAA CI,Cyperus iria [4]; 10 GAI/HA,2
same,WEEDS CONTROL at 4 WAA CI,Cyperus iria [4]; 20 GAI/HA,8
same,WEEDS CONTROL at 4 WAA MC,Marsilea crenata; 10 GAI/HA,0
same,WEEDS CONTROL at 4 WAA MC,Marsilea crenata; 20 GAI/HA,3.33
same,WEED CONTROL RATINGS CD,WEED; Cyperus difformis,10
same,WEED CONTROL RATINGS CS,WEED; Cyperus serotinus,2
same,WEED CONTROL RATINGS EO,WEED; Echinochloa oryzicola,1
same,WEED CONTROL RATINGS BL,WEED; Lindernia pyxidaria,9
same,WEED CONTROL RATINGS MV,WEED; Monochoria vaginalis,9
same,WEED CONTROL RATINGS SP,WEED; Sagittaria pygmaea,8
same,WEED CONTROL RATINGS SJ,WEED; Scirpus juncoides,5
same,% CONTROL OR INJURY CD,Cyperus difformis [5]; 10 GAI/HA,100%
same,% CONTROL OR INJURY CD,Cyperus difformis [5]; 15 GAI/HA,100%
same,% CONTROL OR INJURY CD,Cyperus difformis [5]; 20 GAI/HA,100%
same,% CONTROL OR INJURY SZ,Sphenoclea zeylanica [6]; 10 GAI/HA,99%
same,% CONTROL OR INJURY SZ,Sphenoclea zeylanica [6]; 15 GAI/HA,100%
same,% CONTROL OR INJURY SZ,Sphenoclea zeylanica [6]; 20 GAI/HA,100%
same,% CONTROL OR INJURY RICE,rice [7]; 10 GAI/HA,0%
same,% CONTROL OR INJURY RICE,rice [7]; 15 GAI/HA,0%
same,% CONTROL OR INJURY RICE,rice [7]; 20 GAI/HA,0%
same,WEED CONTROL at 6 WAA FM,FIMBRISTYLIS MILIACEA; 10 GM.A.I./HA,10
same,WEED CONTROL at 6 WAA FM,FIMBRISTYLIS MILIACEA; 15 GM.A.I./HA,9.67
same,WEED CONTROL at 6 WAA FM,FIMBRISTYLIS MILIACEA; 20 GM.A.I./HA,10
same,WEED CONTROL at 6 WAA FM,FIMBRISTYLIS MILIACEA; 30 GM.A.I./HA,10
same,WEED CONTROL at 6 WAA SZ,Sphenoclea zeylanica [8]; 10 GM.A.I./HA,5.67
same,WEED CONTROL at 6 WAA SZ,Sphenoclea zeylanica [8]; 15 GM.A.I./HA,6.67
same,WEED CONTROL at 6 WAA SZ,Sphenoclea zeylanica [8]; 20 GM.A.I./HA,5.67
same,WEED CONTROL at 6 WAA SZ,Sphenoclea zeylanica [8]; 30 GM.A.I./HA,9.67
same,WEED CONTROL at 6 WAA CI,Cyperus iria [9]; 10 GM.A.I./HA,6.67
same,WEED CONTROL at 6 WAA CI,Cyperus iria [9]; 15 GM.A.I./HA,9.0
same,WEED CONTROL at 6 WAA CI,Cyperus iria [9]; 20 GM.A.I./HA,9.33
same,WEED CONTROL at 6 WAA CI,Cyperus iria [9]; 30 GM.A.I./HA,9.67
same,WEED CONTROL at 6 WAA JL,Jussiaea linifolia; 10 GM.A.I./HA,8.0
same,WEED CONTROL at 6 WAA JL,Jussiaea linifolia; 15 GM.A.I./HA,7.67
same,WEED CONTROL at 6 WAA JL,Jussiaea linifolia; 20 GM.A.I./HA,9.50
same,WEED CONTROL at 6 WAA JL,Jussiaea linifolia; 30 GM.A.I./HA,8.67
same,YIELD,direct seeded rice; 10 GAI/HA,3.04 TONS/HA
same,YIELD,direct seeded rice; 20 GAI/HA,3.34 TONS/HA
same,CROP TOLERANCE DW (Dry weight relative to untreated check),rice [10],79%
same,CROP TOLERANCE PH (Plant height relative to untreated check),rice [10],89%
same,CROP TOLERANCE VA (Visual crop injury),rice [10],2.5%
same,WEED CONTROL at 6 WAA CD,Cyperus difformis [11]; 10 GM.A.I./HA,10
same,WEED CONTROL at 6 WAA CD,Cyperus difformis [11]; 15 GM.A.I./HA,10
same,WEED CONTROL at 6 WAA CD,Cyperus difformis [11]; 20 GM.A.I./HA,10
same,WEED CONTROL at 6 WAA CD,Cyperus difformis [11]; 30 GM.A.I./HA,10
same,WEED CONTROL at 6 WAA SZ,Sphenoclea zeylanica [12]; 10 GM.A.I./HA,10
same,WEED CONTROL at 6 WAA SZ,Sphenoclea zeylanica [12]; 15 GM.A.I./HA,10
same,WEED CONTROL at 6 WAA SZ,Sphenoclea zeylanica [12]; 20 GM.A.I./HA,10
same,WEED CONTROL at 6 WAA SZ,Sphenoclea zeylanica [12]; 30 GM.A.I./HA,10
